The source of these data is US6667312B2, “Thioether substituted imidazoquinolines” (3M Innovative Properties Company, priority 2000, dated 2003).

Counter-ions that a name gives are not always drawn.

Series [1] relates to interferon (α). Put plainly: Cytokine Induction in Human Cells: interferon. The series is classed as cell-based. The conditions noted are these: human PBMC, 18 to 24 hours, tested 30-0.014 μM, interferon (α) by ELISA; read-out: Lowest Effective Concentration (μM) Interferon. The source says:
(§1) An in vitro human blood cell system is used to assess cytokine induction. Activity is based on the measurement of interferon and tumor necrosis factor (α) (IFN and TNF, respectively) secreted into culture media as described by Testerman et. al. In “Cytokine Induction by the Immunomodulators Imiquimod and S-27609”, Journal of Leukocyte Biology, 58, 365-372 (September, 1995).
(§2) Whole blood from healthy human donors is collected by venipuncture into EDTA vacutainer tubes. Peripheral blood mononuclear cells (PBMC) are separated from whole blood by density gradient centrifugation using Histopaque®-1077. Blood is diluted 1:1 with Dulbecco's Phosphate Buffered Saline (DPBS) or Hank's Balanced Salts Solution (HBSS). The PBMC layer is collected and washed twice with DPBS or HBSS and resuspended at 4×10^6 cells/mL in RPMI complete. The PBMC suspension is added to 48 well flat bottom sterile tissue culture plates (Costar, Cambridge, Mass. or Becton Dickinson Labware, Lincoln Park, N.J.) containing an equal volume of RPMI complete media containing test compound.
(§3) The compounds are solubilized in dimethyl sulfoxide (DMSO). The DMSO concentration should not exceed a final concentration of 1% for addition to the culture wells. The compounds are generally tested at concentrations ranging from 30-0.014 μM.
(§4) The solution of test compound is added at 60 μM to the first well containing RPMI complete and serial 3 fold dilutions are made in the wells. The PBMC suspension is then added to the wells in an equal volume, bringing the test compound concentrations to the desired range (30-0.014 μM). The final concentration of PBMC suspension is 2×10^6 cells/mL. The plates are covered with sterile plastic lids, mixed gently and then incubated for 18 to 24 hours at 37° C. in a 5% carbon dioxide atmosphere.
(§5) Following incubation the plates are centrifuged for 10 minutes at 1000 rpm (˜200× g) at 4° C. The cell-free culture supernatant is removed with a sterile polypropylene pipet and transferred to sterile polypropylene tubes. Samples are maintained at −30 to −70° C. until analysis. The samples are analyzed for interferon (α) by ELISA and for tumor necrosis factor (α) by ELISA or IGEN Assay
Interferon (α) concentration is determined by ELISA using a Human Multi-Species kit from PBL Biomedical Laboratories, New Brunswick, N.J. Results are expressed in pg/mL.
(§6) The table below lists the lowest concentration found to induce interferon and the lowest concentration found to induce tumor necrosis factor for each compound.
(In general: ELISA stands for enzyme-linked immunosorbent assay.)

Series [2] relates to tumor necrosis factor (α). Put plainly: Cytokine Induction in Human Cells: tumor necrosis factor. It is filed as cell-based. Conditions: human PBMC, 18 to 24 hours, tested 30-0.014 μM, TNF by ELISA or IGEN assay; read-out: Lowest Effective Concentration (μM) Tumor Necrosis Factor.
Description: as §1, §2, §3, §4, §5
Tumor necrosis factor (α) (TNF) concentration is determined using ELISA kits available from Biosource International, Camarillo, Calif. Alternately, the TNF concentration can be determined by Origen® M-Series Immunoassay and read on an IGEN M-8 analyzer from IGEN International, Gaithersburg, Md. The immunoassay uses a human TNF capture and detection antibody pair from Biosource International, Camarillo, Calif. Results are expressed in pg/mL.
as §6

Turning to `CCCCc1nc2c(N)nc3c(c2n1CCSc1ccccc1)CCCC3` (as salt: hydrochloride) [Example 2, 2-butyl-1-[2-(phenylthio)ethyl]-6,7,8,9-tetrahydro-1H-imidazo[4,5-c]quinolin-4-amine Hydrochloride], the melting point (in general, the temperature, or range, at which the solid turns liquid) was in the range of 237 to 238 °C.

With `CCCCc1nc2c(N)nc3c(c2n1CCSc1ccccc1)CCCC3` [Example 2, 2-butyl-1-[2-(phenylthio)ethyl]-6,7,8,9-tetrahydro-1H-imidazo[4,5-c]quinolin-4-amine Hydrochloride], the results for the minimal effective concentration in series [1] and in series [2] were 0.12 µM and 0.37 µM, respectively.

On to `CCCCc1nc2c(N)nc3ccccc3c2n1CCCCCS(C)(=O)=O` [Example 11, 2-butyl-1-[5-(methylsulfonyl)pentyl]-1H-imidazo[4,5-c]quinolin-4-amine], for which the values for the minimal effective concentration in series [1] and in series [2] were 0.01 µM and 0.12 µM, respectively. In the case of `CCc1nc2c(N)nc3ccccc3c2n1CCCCCS(C)(=O)=O` [Example 13, 2-ethyl-1-[5-(methylsulfonyl)pentyl]-1H-imidazo[4,5-c]quinolin-4-amine], the figures for the minimal effective concentration in series [1] and in series [2] were 0.12 µM and 3.33 µM, respectively. For the compound `CCCc1nc2c(N)nc3ccccc3c2n1CCCCS(C)(=O)=O` [Example 30, 1-[4-(methylsulfonyl)butyl]-2-propyl-1H-imidazo[4,5-c]quinolin-4-amine], the minimal effective concentration in series [1] amounted to 0.37 µM; in series [2], 3.33 µM. Taken in the same sequence, the figures for `CCCCc1nc2c(N)nc3ccccc3c2n1CCCCS(=O)(=O)CC` [Example 39] were 0.04 µM and 0.04 µM.

Consider `CCCCc1nc2c(N)nc3ccccc3c2n1CCCCSC(C)(C)C` [Example 40], for which the minimal effective concentration in series [1] and in series [2] was 0.01 µM throughout.

`CCCCc1nc2c(N)nc3ccccc3c2n1CCCCSc1ccc(F)cc1` [Example 41]: the minimal effective concentration in series [1] and in series [2] was 0.37 µM each time. For the compound `CCCCc1nc2c(N)nc3ccccc3c2n1CCCCS(=O)(=O)c1ccc(F)cc1` [Example 42], the minimal effective concentration in series [1] and in series [2] was 0.12 µM each time.

As to `CCc1nc2c(N)nc3ccccc3c2n1CCCCSC(C)C` [Example 43], the minimal effective concentration in series [1] turned out to be 0.014 µM; in series [2], 0.37 µM. Taken in the same sequence, the figures for `CCc1nc2c(N)nc3ccccc3c2n1CCCCSc1cc(Cl)cc(Cl)c1` [Example 44] were 1.11 µM and 10 µM. Taken in the same sequence, the figures for `CCc1nc2c(N)nc3ccccc3c2n1CCCCS(=O)(=O)C1CCCC1` [Example 45] were 0.37 µM and 1.11 µM. Taken in the same sequence, the figures for `CCc1nc2c(N)nc3ccccc3c2n1CCCCS(=O)(=O)c1cc(Cl)cc(Cl)c1` [Example 46] were 0.12 µM and 0.37 µM. In the case of `CCc1nc2c(N)nc3ccccc3c2n1CCCCSC1CCCCC1` [Example 47], the results for the minimal effective concentration in series [1] and in series [2] were 0.37 µM and 3.33 µM, respectively. In the same order, the values of `CCCCSCCCCn1c(CC)nc2c(N)nc3ccccc3c21` [Example 48] are 0.014 µM and 0.12 µM.

Take `CCc1nc2c(N)nc3ccccc3c2n1CCCCSc1ccc(Cl)cc1` [Example 49]: the minimal effective concentration in series [1] came to 0.37 µM; in series [2] it was 1.11 µM. Taken in the same sequence, the figures for `CCCCS(=O)(=O)CCCCn1c(CC)nc2c(N)nc3ccccc3c21` [Example 50] were 0.37 µM and 1.11 µM.

With `CCc1nc2c(N)nc3ccccc3c2n1CCCCSc1ccc(F)cc1` [Example 51], the minimal effective concentration in series [1] is recorded as 0.12 µM; in series [2], 1.11 µM. Turning to `CCc1nc2c(N)nc3ccccc3c2n1CCCCS(=O)(=O)C(C)C` [Example 52], the minimal effective concentration in series [1] came out at 0.37 µM; in series [2], 1.11 µM. Taken in the same sequence, the figures for `CCSCCCCn1c(CC)nc2c(N)nc3ccccc3c21` [Example 53] were 0.04 µM and 0.37 µM. On to `CCc1nc2c(N)nc3ccccc3c2n1CCCCS(=O)(=O)CC` [Example 54], for which the results for the minimal effective concentration in series [1] and in series [2] were 0.37 µM and 1.11 µM, respectively. On to `CCc1nc2c(N)nc3ccccc3c2n1CCCCS(=O)(=O)C1CCCCC1` [Example 55], for which the minimal effective concentration was found to be 0.12 µM in series [1] and 1.11 µM in series [2]. Taken in the same sequence, the figures for `CCCCc1nc2c(N)nc3ccccc3c2n1CCS(=O)(=O)C(C)C` [Example 56] were 0.37 µM and 0.37 µM. In the same order, the values of `CCCCc1nc2c(N)nc3ccccc3c2n1CCS(=O)(=O)c1ccccc1` [Example 57] are 1.11 µM and 1.11 µM. Taken in the same sequence, the figures for `CCCCc1nc2c(N)nc3ccccc3c2n1CCS(=O)(=O)c1ccc(F)cc1` [Example 58] were 1.11 µM and 1.11 µM.

As for `CCCCc1nc2c(N)nc3ccccc3c2n1CCSC(C)(C)C` [Example 59], the results for the minimal effective concentration in series [1] and in series [2] were 0.01 µM and 0.04 µM, respectively. With `CCCCc1nc2c(N)nc3ccccc3c2n1CCS(=O)(=O)C(C)(C)C` [Example 60], the minimal effective concentration in series [1] and in series [2] was 0.37 µM each time. With `CCCCc1nc2c(N)nc3ccccc3c2n1CCSCCC` [Example 61], the minimal effective concentration in series [1] is 0.04 µM; in series [2] it was 0.12 µM.

With `CCCCc1nc2c(N)nc3ccccc3c2n1CCS(=O)(=O)CCC` [Example 62], the minimal effective concentration in series [1] was 0.12 µM; in series [2], 0.37 µM. As to `CCCCc1nc2c(N)nc3ccccc3c2n1CCSCC(C)C` [Example 63], the minimal effective concentration in series [1] and in series [2] was 0.04 µM throughout. For `CCCCc1nc2c(N)nc3ccccc3c2n1CCS(=O)(=O)CC(C)C` [Example 64], the minimal effective concentration in series [1] and in series [2] was 0.12 µM throughout. `CCCCc1nc2c(N)nc3ccccc3c2n1CCSCC` [Example 65]: the minimal effective concentration in series [1] came out at 0.01 µM; in series [2], 0.04 µM. In the same order, the values of `CCCCc1nc2c(N)nc3ccccc3c2n1CCS(=O)(=O)CC` [Example 66] are 0.12 µM and 0.12 µM.

With `CCc1nc2c(N)nc3ccccc3c2n1CCCCSc1ncccn1` [Example 72, 2-ethyl-1-[4-(pyrimidin-2-ylthio)butyl]-1H-imidazo[4,5-c]quinolin-4-amine], the melting point was in the range of 182 to 185 °C. `Cc1nc2c(N)nc3c(c2n1CCCCS(C)(=O)=O)CCCC3` [Example 74, 2-methyl-1-[4-(methylsulfonyl)butyl]-6,7,8,9-tetrahydro-1H-imidazo[4,5-c]quinolin-4-amine] came in with a melting point of 213 to 216 °C. Same read-out and setting: for `Cc1nc2c(N)nc3c(c2n1CCCCCS(C)(=O)=O)CCCC3` [Example 75, 2-methyl-1-[5-(methylsulfonyl)pentyl]-6,7,8,9-tetrahydro-1H-imidazo[4,5-c]quinolin-4-amine] the value was 172 to 174 °C; for `Cc1nc2c(N)nc3c(c2n1CCCCS(=O)(=O)C(C)C)CCCC3` [Example 76, 2-methyl-1-{4-[(1-methylethyl)sulfonyl]butyl}-6,7,8,9-tetrahydro-1H-imidazo[4,5-c]quinolin-4-amine], 177 to 178 °C.
